These results are taken from patent publication US9290476B2, “Methylene linked quinolinyl modulators of RORγt” (Janssen Pharmaceutica NV, priority 2012, dated 2016).

The test system of assay [1] is IL-17 production by CD4 T cells. Nature of the assay: Human Th17 assay (IL-17 production by CD4 T cells under Th17 differentiation). The assay is classed as cell-based. As to conditions: read-out: Human Th17 Assay, IC50 μM. The text has this: The human Th17 assay tests the effect of RORγt modulatory compounds on IL-17 production by CD4 T cells under conditions which favor Th17 differentiation.
Total CD4^+ T cells were isolated from the peripheral blood mononuclear cells (PBMC) of healthy donors using a CD4^+ T cell isolation kit II, following the manufacturer's instructions (Miltenyi Biotec). Cells were resuspended in a medium of RPMI-1640 supplemented with 10% fetal bovine serum, penicillin, streptomycin, glutamate, and β-mercaptoethanol and were added to 96-well plates at 1.5×10^5 per 100 μL per well. 50 μL of compound at titrated concentrations in DMSO were added into each well at final DMSO concentration at 0.2%. Cells were incubated for 1 hour, then 50 μL of Th17 cell differentiation medium was added to each well. The final concentrations of antibodies and cytokines (R&D Systems) in differentiation medium were: 3×10^6/mL anti-CD3/CD28 beads (prepared using human T cell activation/expansion kit, Miltenyi Biotec), 10 μg/mL anti-IL4, 10 μg/mL anti-IFNγ, 10 ng/mL IL1β, 10 ng/mL IL23, 50 ng/mL IL6, 3 ng/mL TGFβ and 20 U/mL IL2. Cells were cultured at 37° C. and 5% CO2 for 3 days. Supernatants were collected and the accumulated IL-17 in culture was measured by using MULTI-SPOT® Cytokine Plate following manufacture's instruction (Meso Scale Discovery). The plate was read using Sector Imager 6000, and IL-17 concentration was extrapolated from the standard curve. The IC50s were determined by GraphPad.

For a further assay, the target named is human RORγt LBD (Homo sapiens (Human), UniProt P51449). Put plainly: RORγt reporter assay (GAL4-RORγt LBD luciferase in HEK293T cells). The assay is classed as cell-based. To be noted: for inhibition at 6 µM: HEK-293T, read-out: RORγt reporter Assay, % inhibition @ 6 μM, HEK293T cells, 6 μM; for IC50: 24 hours compound treatment. In outline: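 HEK293T cells transiently co-transfected with GAL4-DBD–wild-type human RORγt LBD (pBIND) and GAL4-responsive firefly luciferase reporter (pGL4.31); renilla luciferase from pBIND normalises transfection/viability. Cells in phenol-red-free DMEM, 5% lipid-reduced FCS, treated with compound 24 h. Firefly/renilla ratio plotted against compound concentration.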

Assay [2] concerns the target human RORγt ligand binding domain (RORγt LBD) (Homo sapiens (Human), UniProt P51449). Nature of the assay: RORγt ThermoFluor assay (thermal shift binding affinity). To be noted: estimated from thermal shift. In outline:
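Thermal shift used 0.065 mg/mL RORγt LBD with 60 μM 1,8-ANS in 100 mM Hepes pH 7.0, 10 mM NaCl, 2.5 mM GSH and 0.002% Tween-20, heated at 1 °C/min. Fluorescence was excited at 380–400 nm and emission read at 500 nm.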

Setting [3] is: Homo sapiens, CD4+ T, 72 h, human CD4+ T cells, IL-17 after 3 days.
The mark [4] stands for this setting: human CD4+ T cells, IL-17 after 3 days.

Counter-ions that a name gives are not always drawn. Like-named read-outs stand apart in the source and are kept apart here.

Sequence of human RORγt LBD (P51449 258-518): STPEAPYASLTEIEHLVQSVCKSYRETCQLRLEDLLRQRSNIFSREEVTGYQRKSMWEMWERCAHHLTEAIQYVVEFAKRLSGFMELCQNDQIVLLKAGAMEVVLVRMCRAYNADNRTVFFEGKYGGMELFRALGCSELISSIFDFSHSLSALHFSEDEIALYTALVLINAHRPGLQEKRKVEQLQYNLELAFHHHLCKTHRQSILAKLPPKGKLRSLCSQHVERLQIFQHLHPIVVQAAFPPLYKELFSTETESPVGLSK
Sequence of human RORγt ligand binding domain (RORγt LBD) (P51449 other isoform, or with tags, fused parts or gaps): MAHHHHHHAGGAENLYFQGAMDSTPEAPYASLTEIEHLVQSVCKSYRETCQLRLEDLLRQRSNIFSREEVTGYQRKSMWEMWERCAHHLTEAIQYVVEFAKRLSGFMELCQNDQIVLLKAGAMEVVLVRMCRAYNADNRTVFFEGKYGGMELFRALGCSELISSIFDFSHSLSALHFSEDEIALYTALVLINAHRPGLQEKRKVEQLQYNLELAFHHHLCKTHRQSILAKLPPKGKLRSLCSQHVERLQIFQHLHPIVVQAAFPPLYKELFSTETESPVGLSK

On to `COc1nc2ccc(C(O)(c3ccc(Cl)cc3)c3cncn3C)cc2c(Cl)c1Cc1ccc(-n2cccn2)cc1` (single isomer, unassigned) [Example 33C, (3-(4-(1H-pyrazol-1-yl)benzyl)-4-chloro-2-methoxyquinolin-6-yl)(4-chlorophenyl)(1-methyl-1H-imidazol-5-yl)methanol], for which the half-inhibitory concentration (IC50) in assay [1] (Homo sapiens, CD4+ T, 72 h) turned out to be 0.067 µM. As to `COc1nc2ccc(C(O)(c3ccc(C(F)(F)F)nc3)c3cncn3C)cc2c(Cl)c1Cc1ccc(-n2cccn2)cc1` (single isomer, unassigned) [Example 35B, (3-(4-(1H-pyrazol-1-yl)benzyl)-4-chloro-2-methoxyquinolin-6-yl)(1-methyl-1H-imidazol-5-yl)(6-(trifluoromethyl)pyridin-3-yl)methanol], in assay [1] (Homo sapiens, CD4+ T, 72 h), the concentration for half-maximal inhibition (IC50) amounted to 0.074 µM. Turning to `COc1nc2ccc(C(O)(c3ccc(C(F)(F)F)nc3)c3cncn3C)cc2c(Cl)c1Cc1ccc(-n2cccn2)cc1` (single isomer, unassigned) [Example 35C, (3-(4-(1H-pyrazol-1-yl)benzyl)-4-chloro-2-methoxyquinolin-6-yl)(1-methyl-1H-imidazol-5-yl)(6-(trifluoromethyl)pyridin-3-yl)methanol], the IC50 in assay [1] worked out at 0.051 µM. `COc1nc2ccc(C(O)(c3cncn3C)C3CCN(C(C)=O)CC3)cc2c(Cl)c1Cc1ccc(-n2cccn2)cc1` (single isomer, unassigned) [Example 60B, 1-(4-((3-(4-(1H-Pyrazol-1-yl)benzyl)-4-chloro-2-methoxyquinolin-6-yl)(hydroxy)(1-methyl-1H-imidazol-5-yl)methyl)piperidin-1-yl)ethanone]: the 50% inhibitory concentration (IC50) in assay [1] (setting [3]) is 0.17 µM. Turning to `COc1nc2ccc(C(O)(c3cncn3C)C3CCN(C(C)=O)CC3)cc2c(Cl)c1Cc1ccc(-n2cccn2)cc1` (single isomer, unassigned) [Example 60C, 1-(4-((3-(4-(1H-Pyrazol-1-yl)benzyl)-4-chloro-2-methoxyquinolin-6-yl)(hydroxy)(1-methyl-1H-imidazol-5-yl)methyl)piperidin-1-yl)ethanone], in assay [1] (setting [4]), the 50% inhibitory concentration (IC50) stood at 0.16 µM.

In the case of `COc1nc2ccc(C(O)(c3ccc(C(F)(F)F)nc3)c3cncn3C)cc2c(Cl)c1Cc1ccc(C(F)(F)F)cc1` (single isomer, unassigned) [Example 62B, (4-Chloro-2-methoxy-3-(4-(trifluoromethyl)benzyl)quinolin-6-yl)(1-methyl-1H-imidazol-5-yl)(6-(trifluoromethyl)pyridin-3-yl)methanol], the IC50 in assay [1] (Homo sapiens, CD4+ T, 72 h) amounted to 0.1 µM.

As to `COc1nc2ccc(C(O)(c3ccc(C(F)(F)F)nc3)c3cncn3C)cc2c(Cl)c1Cc1ccc(C(F)(F)F)cc1` (single isomer, unassigned) [Example 62C, (4-Chloro-2-methoxy-3-(4-(trifluoromethyl)benzyl)quinolin-6-yl)(1-methyl-1H-imidazol-5-yl)(6-(trifluoromethyl)pyridin-3-yl)methanol], the IC50 in assay [1] is 0.064 µM. Regarding `COc1nc2ccc(C(O)(c3ccc(Cl)cc3)c3cncn3C)cc2c(Cl)c1Cc1ccc(C#N)cc1` (single isomer, unassigned) [Example 63C, 4-((4-Chloro-6-((4-chlorophenyl)(hydroxy)(1-methyl-1H-imidazol-5-yl)methyl)-2-methoxyquinolin-3-yl)methyl)benzonitrile], the concentration for half-maximal inhibition (IC50) in assay [1] (Homo sapiens, CD4+ T, 72 h) came out at 0.038 µM. Consider `COc1nc2ccc(C(O)(c3ccc(Cl)cc3)c3cncn3C)cc2c(Cl)c1Cc1ccc(-n2cncn2)cc1` (single isomer, unassigned) [Example 64C, (3-(4-(1H-1,2,4-triazol-1-yl)benzyl)-4-chloro-2-methoxyquinolin-6-yl)(4-chlorophenyl)(1-methyl-1H-imidazol-5-yl)methanol], for which, in assay [1] (setting [3]), the concentration for half-maximal inhibition (IC50) worked out at 0.086 µM. For the same compound, the “RORγt reporter Assay, % inhibition @ 6 μM” value at human RORγt LBD (HEK293T cells, 6 μM) worked out at 94%. As for `Cn1cncc1C(O)(c1ccc(C(F)(F)F)nc1)c1ccc2nc(C#N)c(Cc3ccc(-n4cccn4)cc3)c(C#N)c2c1` (single isomer, unassigned) [Example 72C, 3-(4-(1H-Pyrazol-1-yl)benzyl)-6-(hydroxy(1-methyl-1H-imidazol-5-yl)(6-(trifluoromethyl)pyridin-3-yl)methyl)quinoline-2,4-dicarbonitrile], in assay [1] (setting [3]), the IC50 turned out to be 0.055 µM. In addition, at human RORγt LBD, the inhibition at 6 µM was determined as 100%.

As to `COc1nc2ccc(C(O)(c3ccc(C)nc3C)c3cnnn3C)cc2c(Cl)c1Cc1ccc(C(F)(F)F)cc1` (single isomer, unassigned) [Example 77B, (4-chloro-2-methoxy-3-(4-(trifluoromethyl)benzyl)quinolin-6-yl)(2,6-dimethylpyridin-3-yl)(1-methyl-1H-1,2,3-triazol-5-yl)methanol], the IC50 in assay [1] (setting [4]) amounted to 0.36 µM. Besides, the inhibition at 6 µM at human RORγt LBD was 98%. As to `COc1nc2ccc(C(O)(c3ccc(Cl)cc3)c3cncn3C)cc2c(Cl)c1Cc1ccc(-n2cccn2)cc1` (centres unmarked) [Example 33A, (3-(4-(1H-Pyrazol-1-yl)benzyl)-4-chloro-2-methoxyquinolin-6-yl)(4-chlorophenyl)(1-methyl-1H-imidazol-5-yl)methanol], in assay [1] (Homo sapiens, CD4+ T, 72 h), the IC50 stood at 0.14 µM. The same measure, in the same setting: then `COc1nc2ccc(C(O)(c3ccc(C(F)(F)F)nc3)c3cncn3C)cc2c(Cl)c1Cc1ccc(-n2cccn2)cc1` (centres unmarked) [Example 35A, (3-(4-(1H-Pyrazol-1-yl)benzyl)-4-chloro-2-methoxyquinolin-6-yl)(1-methyl-1H-imidazol-5-yl)(6-(trifluoromethyl)pyridin-3-yl)methanol.TFA], with 0.3 µM; and `COc1nc2ccc(C(O)(c3cnnn3C)c3cnnn3C)cc2c(Cl)c1Cc1ccc(-n2cccn2)cc1` [Example 61, (3-(4-(1H-Pyrazol-1-yl)benzyl)-4-chloro-2-methoxyquinolin-6-yl)bis(1-methyl-1H-1,2,3-triazol-5-yl)methanol], with 0.0042 µM.

Compound `COc1nc2ccc(C(O)(c3cnnn3C)c3cnc(C)n3C)cc2c(C#N)c1Cc1ccc(C(F)(F)F)cc1` (centres unmarked) [Example 81A, 6-((1,2-Dimethyl-1H-imidazol-5-yl)(hydroxy)(1-methyl-1H-1,2,3-triazol-5-yl)methyl)-2-methoxy-3-(4-(trifluoromethyl)benzyl)quinoline-4-carbonitrile] yielded an IC50 at human RORγt LBD (HEK293T cells) of 0.0021 µM. Further, the inhibition at 6 µM on human RORγt LBD is 104%. For the same compound, the Kd in assay [2] is 0.00012 µM. `CCc1nc2ccc(C(O)(c3cnnn3C)C3CN(C(=O)OC(C)(C)C)C3)cc2c(Cl)c1Cc1ccc(C(F)(F)F)cc1` (centres unmarked) [Example 89, tert-Butyl 3-((4-chloro-2-ethyl-3-(4-(trifluoromethyl)benzyl)quinolin-6-yl)(hydroxy)(1-methyl-1H-1,2,3-triazol-5-yl)methyl)azetidine-1-carboxylate] displayed a half-maximal inhibitory concentration (IC50) at human RORγt LBD (HEK293T cells) of 0.021 µM. Moreover, the inhibition at 6 µM at human RORγt LBD was found to be 102%. In addition, the Kd in assay [2] was 0.00077 µM.

For `CCc1nc2ccc(C(O)(c3cnnn3C)C3CN(C(C)=O)C3)cc2c(Cl)c1Cc1ccc(C(F)(F)F)cc1` (centres unmarked) [Example 90A, 1-(3-((4-Chloro-2-ethyl-3-(4-(trifluoromethyl)benzyl)quinolin-6-yl)(hydroxy)(1-methyl-1H-1,2,3-triazol-5-yl)methyl)azetidin-1-yl)ethanone], the IC50 on human RORγt LBD (HEK293T cells) turned out to be 0.011 µM. Besides, the inhibition at 6 µM on human RORγt LBD was 98%. Besides, the Kd in assay [2] was 0.00044 µM. The compound `COc1nc2ccc(C(O)(c3ccc(C(F)(F)F)nc3)c3cncn3C)cc2c(Cl)c1Cc1ccc(C(F)(F)F)nc1` (centres unmarked) [Example 94A, (4-Chloro-2-methoxy-3-((6-(trifluoromethyl)pyridin-3-yl)methyl)quinolin-6-yl)(1-methyl-1H-imidazol-5-yl)(6-(trifluoromethyl)pyridin-3-yl)methanol] yielded a concentration for half-maximal inhibition (IC50) on human RORγt LBD (HEK293T cells) of 0.069 µM. The inhibition at 6 µM on human RORγt LBD came out at 98%. Further, the dissociation constant Kd in assay [2] was 0.012 µM. On the same counts, the results for `COc1nc2ccc(C(O)(c3ccc(C#N)cc3)c3cncn3C)cc2c(C#N)c1Cc1ccc(C(F)(F)F)cc1` (centres unmarked) [Example 96A, 6-((4-cyanophenyl)(hydroxy)(1-methyl-1H-imidazol-5-yl)methyl)-2-methoxy-3-(4-(trifluoromethyl)benzyl)quinoline-4-carbonitrile] are 0.0078 µM, 99% and 0.0019 µM.
